Where only a bound is given, the exact number is not on record here.

Chain of SOS1:KRAS (G12C) interaction (Q07889 564-1049, stated change not applied): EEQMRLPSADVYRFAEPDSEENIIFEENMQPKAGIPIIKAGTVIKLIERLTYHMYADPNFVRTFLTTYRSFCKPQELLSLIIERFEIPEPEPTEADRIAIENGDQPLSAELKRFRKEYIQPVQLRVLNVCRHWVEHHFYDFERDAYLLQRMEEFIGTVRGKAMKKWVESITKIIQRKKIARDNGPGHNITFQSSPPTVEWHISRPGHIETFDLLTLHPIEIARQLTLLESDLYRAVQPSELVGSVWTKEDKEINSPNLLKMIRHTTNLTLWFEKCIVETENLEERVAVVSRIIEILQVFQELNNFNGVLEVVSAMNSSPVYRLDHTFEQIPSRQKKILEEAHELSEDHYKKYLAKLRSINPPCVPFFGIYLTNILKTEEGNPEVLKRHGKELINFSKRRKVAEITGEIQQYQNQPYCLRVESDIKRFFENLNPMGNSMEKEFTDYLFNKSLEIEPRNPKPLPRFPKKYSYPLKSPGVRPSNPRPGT

This test concerns the target SOS1:KRAS (G12C) interaction (Homo sapiens (Human), UniProt Q07889). The experiment in a line: SOS1-KRas(G12C) FRET Assay. Type of test: binding. The settings on record: 0.5 nM His10-SOS1 (res. 564-1049), 2.5 nM GST-KRAS (res. 1-169, G12C); read-out: SOS-KRas(G12C) FRET IC50. On the procedure: Inhibition of the SOS1:KRAS interaction was measured using purified GST-tagged KRAS (res. 1-169, G12C, purified based on Hillig, et al., Proc Natl Acad Sci USA (2019); 116(7):2551-2560) and recombinant His10-SOS1 (res. 564-1049; purified based on Hillig, et al.). The final assay was performed at 20 uL with 0.5 nM SOS1 protein and 2.5 nM KRAS protein in a buffer of PBS, 0.1% BSA, 5 mM MgCl2, 0.0025% Igepal, 100 mM KF, 5 mM DTT in a white 384 square well OptiPlate (PerkinElmer, Cat. 6007290). A 2× KRAS working solution was prepared in an assay buffer containing 5 nM GST-KRAS G12C and 2 nM anti-GST-Eu(K) (Cisbio, Cat. 61GSTKLA) and pre-incubated for 15 minutes at 25° C. Compounds were serially diluted in 100% DMSO from 2 mM (positive control, compound I-13, PCT Publ. No. WO2018/115380) or 20 mM and then diluted 1:20 in assay buffer before incubation with a solution of SOS1 protein mixed 1:5 with anti-6His-XL665 FRET donor (Cisbio, Cat. 61HISXL) for 15 minutes at 25° C. before addition of 2× KRAS working solution. The final DMSO concentration is 0.5%. Plates were incubated at RT for 2 hrs before the FRET signal was measured using Envision at emission 665 nm and 615 nm. FRET signal was converted to percentage of protein-protein interaction using the following equation:
[formula] • C: signal with compound treatment • P: signal for positive control (DMSO) • N: signal for negative control (no SOS1 added) • IC50 and Hill coefficients were obtained using Graph Pad Prism (Graph Pad software, Inc, USA) with non-linear regression analysis.
One may read the IC50 as the concentration that inhibits the measured activity by half. For the molecule `Cn1nc(N[C@@H](c2cccc(C(F)(F)F)c2)C(F)F)c2cn(C3CC3)c(=O)cc2c1=O` [Example 111, (S)-6-cyclopropyl-4-((2,2-difluoro-1-(3-(trifluoromethyl)phenyl)ethyl)amino)-2-methylpyrido[3,4-d]pyridazine-1,7(2H,6H)-dione], the IC50 stood at 0.631 µM.

As to `Cn1nc(N[C@H](c2cccc(C(F)(F)F)c2)C(F)F)c2cn(C3CC3)c(=O)cc2c1=O` [Example 112, (R)-6-cyclopropyl-4-((2,2-difluoro-1-(3-(trifluoromethyl)phenyl)ethyl)amino)-2-methylpyrido[3,4-d]pyridazine-1,7(2H,6H)-dione], the IC50 was above 10 µM.

As for `C[C@H](Nc1nn(C)c(=O)c2cc(=O)n(C3(C(F)F)CC3)cc12)c1cccc2cccn12` [Example 113, (S)-6-(1-(difluoromethyl)cyclopropyl)-4-((1-(indolizin-5-yl)ethyl)amino)-2-methyl-2,6-dihydropyrido[3,4-d]pyridazine-1,7-dione], the 50% inhibitory concentration (IC50) is above 10 µM.

On to `C[C@@H](Nc1nn(C)c(=O)c2cc(=O)n(C3(C(F)F)CC3)cc12)c1cccc2cccn12` [Example 114, (R)-6-(1-(difluoromethyl)cyclopropyl)-4-((1-(indolizin-5-yl)ethyl)amino)-2-methyl-2,6-dihydropyrido[3,4-d]pyridazine-1,7-dione], for which the concentration for half-maximal inhibition (IC50) was determined as 2.06 µM.

For the molecule `C[C@H](Nc1nn(C)c(=O)c2cc(=O)n(C3(C(F)F)CC3)cc12)c1cccc2ccnn12` [Example 115, (S)-6-(1-(difluoromethyl)cyclopropyl)-2-methyl-4-((1-(pyrazolo[1,5-a]pyridin-7-yl)ethyl)amino)-2,6-dihydropyrido[3,4-d]pyridazine-1,7-dione], the IC50 was above 10 µM.

`C[C@@H](Nc1nn(C)c(=O)c2cc(=O)n(C3(C(F)F)CC3)cc12)c1cccc2ccnn12` [Example 116, (R)-6-(1-(difluoromethyl)cyclopropyl)-2-methyl-4-((1-(pyrazolo[1,5-a]pyridin-7-yl)ethyl)amino)-2,6-dihydropyrido[3,4-d]pyridazine-1,7-dione]: the half-inhibitory concentration (IC50) is above 10 µM.

On to `Cc1cc([C@H](C)Nc2nn(C)c(=O)c3cc(=O)n(C4CC4)cc23)cc(C(F)(F)F)c1` [Example 117, 6-cyclopropyl-2-methyl-4-[[(1S)-1-[3-methyl-5-(trifluoromethyl)phenyl]ethyl]amino]pyrido[3,4-d]pyridazine-1,7-dione], for which the 50% inhibitory concentration (IC50) came to 0.568 µM.

In the case of `Cc1cc([C@@H](C)Nc2nn(C)c(=O)c3cc(=O)n(C4CC4)cc23)cc(C(F)(F)F)c1` [Example 118, 6-cyclopropyl-2-methyl-4-[[(1R)-1-[3-methyl-5-(trifluoromethyl)phenyl]ethyl]amino]pyrido[3,4-d]pyridazine-1,7-dione], the half-inhibitory concentration (IC50) is above 10 µM.

As for `C[C@@H](Nc1nn(C)c(=O)c2cc(=O)n(C3(CO)CC3)cc12)c1cccc(C(F)F)c1F` [Example 123, (R)-4-((1-(3-(difluoromethyl)-2-fluorophenyl)ethyl)amino)-6-(1-(hydroxymethyl)cyclopropyl)-2-methylpyrido[3,4-d]pyridazine-1,7(2H,6H)-dione], the IC50 stood at 0.366 µM.

Consider `C[C@@H](Nc1nn(C)c(=O)c2cc(=O)n(C3(CN4CC(F)C4)CC3)cc12)c1cccc(C(F)F)c1F` [Example 124, (R)-4-((1-(3-(difluoromethyl)-2-fluorophenyl)ethyl)amino)-6-(1-((3-fluoroazetidin-1-yl)methyl)cyclopropyl)-2-methylpyrido[3,4-d]pyridazine-1,7(2H,6H)-dione], for which the IC50 turned out to be 0.886 µM.

As for `C[C@@H](Nc1nn(C)c(=O)c2cc(=O)n(C3(CF)CC3)cc12)c1cccc(C(F)F)c1F` [Example 125, (R)-4-((1-(3-(difluoromethyl)-2-fluorophenyl)ethyl)amino)-6-(1-(fluoromethyl)cyclopropyl)-2-methylpyrido[3,4-d]pyridazine-1,7(2H,6H)-dione], the IC50 is 0.0543 µM.

For `C[C@@H](Nc1nn(C)c(=O)c2cc(=O)n(C3(C(C)(F)F)CC3)cc12)c1cccc(C(F)F)c1F` [Example 126, (R)-6-(1-(1,1-difluoroethyl)cyclopropyl)-4-((1-(3-(difluoromethyl)-2-fluorophenyl)ethyl)amino)-2-methyl-2,6-dihydropyrido[3,4-d]pyridazine-1,7-dione], the IC50 was 0.0678 µM.

For the molecule `Cc1c([C@@H](C)Nc2nn(C)c(=O)c3cc(=O)n(C45COC(C)(C4)C5)cc23)cccc1C(F)(F)F` [Example 127, (R)-2-methyl-4-((1-(2-methyl-3-(trifluoromethyl)phenyl)ethyl)amino)-6-(1-methyl-2-oxabicyclo[2.1.1]hexan-4-yl)-2,6-dihydropyrido[3,4-d]pyridazine-1,7-dione], the IC50 came out at 0.09 µM.

Take `C[C@@H](Nc1nn(C)c(=O)c2cc(=O)n(C3(C)CC(F)(F)C3)cc12)c1cccc(C(F)F)c1F` [Example 134, (R)-6-(3,3-difluoro-1-methylcyclobutyl)-4-((1-(3-(difluoromethyl)-2-fluorophenyl)ethyl)amino)-2-methyl-2,6-dihydropyrido[3,4-d]pyridazine-1,7-dione]: the half-maximal inhibitory concentration (IC50) was 0.282 µM.

In the case of `C[C@@H](Nc1nn(C)c(=O)c2cc(=O)n(C34CNC(C3)C4)cc12)c1cccc(C(F)F)c1F` [Example 145, (R)-6-(2-azabicyclo[2.1.1]hexan-4-yl)-4-((1-(3-(difluoromethyl)-2-fluorophenyl)ethyl)amino)-2-methyl-2,6-dihydropyrido[3,4-d]pyridazine-1,7-dione], the concentration for half-maximal inhibition (IC50) was 0.083 µM.

Regarding `CC(=O)N1CC2(n3cc4c(N[C@H](C)c5cccc(C(F)F)c5F)nn(C)c(=O)c4cc3=O)CC1C2` [Example 146, (R)-6-(2-acetyl-2-azabicyclo[2.1.1]hexan-4-yl)-4-((1-(3-(difluoromethyl)-2-fluorophenyl)ethyl)amino)-2-methyl-2,6-dihydropyrido[3,4-d]pyridazine-1,7-dione], the IC50 was 0.0706 µM.

Consider `C[C@@H](Nc1nn(C)c(=O)c2cc(=O)n(C3(C(F)F)CCC3)cc12)c1cccc(C(F)F)c1F` [Example 147, (R)-4-((1-(3-(difluoromethyl)-2-fluorophenyl)ethyl)amino)-6-(1-(difluoromethyl)cyclo-butyl)-2-methyl-2,6-dihydropyrido[3,4-d]pyridazine-1,7-dione], for which the IC50 was determined as 0.0324 µM.

As to `C[C@@H](Nc1nn(C)c(=O)c2cc(=O)n([C@]34COC[C@H]3C4)cc12)c1cccc(C(F)F)c1F` [Example 148, 4-[[(1R)-1-[3-(difluoromethyl)-2-fluoro-phenyl]ethyl]amino]-2-methyl-6-[(1S,5S)-3-oxabicyclo[3.1.0]hexan-1-yl]pyrido[3,4-d]pyridazine-1,7-dione], the IC50 was found to be 0.0405 µM.

On to `CC(=O)N1CC(C)(n2cc3c(N[C@H](C)c4cccc(C(F)F)c4F)nn(C)c(=O)c3cc2=O)C1` [Example 149, (R)-6-(1-acetyl-3-methylazetidin-3-yl)-4-((1-(3-(difluoromethyl)-2-fluorophenyl)ethyl)amino)-2-methylpyrido[3,4-d]pyridazine-1,7(2H,6H)-dione], for which the IC50 stood at 0.0343 µM.

For the molecule `C[C@@H](Nc1nn(C)c(=O)c2cc(=O)n(C3(C)CN(C(=O)C4CC4)C3)cc12)c1cccc(C(F)F)c1F` [Example 150, (R)-6-(1-(cyclopropanecarbonyl)-3-methylazetidin-3-yl)-4-((1-(3-(difluoromethyl)-2-fluorophenyl)ethyl)amino)-2-methyl-2,6-dihydropyrido[3,4-d]pyridazine-1,7-dione], the IC50 came out at 0.0055 µM.

For the molecule `COC1(C(=O)N2CC(C)(n3cc4c(N[C@H](C)c5cccc(C(F)F)c5F)nn(C)c(=O)c4cc3=O)C2)CC1` [Example 151, (R)-4-((1-(3-(difluoromethyl)-2-fluorophenyl)ethyl)amino)-6-(1-(1-methoxycyclopropane-1-carbonyl)-3-methylazetidin-3-yl)-2-methyl-2,6-dihydropyrido[3,4-d]pyridazine-1,7-dione], the IC50 came out at 0.564 µM.

Consider `C[C@@H](Nc1nn(C)c(=O)c2cc(=O)n(C3(C)CNC3)cc12)c1cccc(C(F)F)c1F` [Example 152, (R)-4-((1-(3-(difluoromethyl)-2-fluorophenyl)ethyl)amino)-2-methyl-6-(3-methylazetidin-3-yl)pyrido[3,4-d]pyridazine-1,7(2H,6H)-dione], for which the concentration for half-maximal inhibition (IC50) is 0.248 µM.

For the molecule `C[C@@H](Nc1nn(C)c(=O)c2cc(=O)n(C3(C)CN(C(=O)C4(F)CC4)C3)cc12)c1cccc(C(F)F)c1F` [Example 153, (R)-4-((1-(3-(difluoromethyl)-2-fluorophenyl)ethyl)amino)-6-(1-(1-fluorocyclopropane-1-carbonyl)-3-methylazetidin-3-yl)-2-methyl-2,6-dihydropyrido[3,4-d]pyridazine-1,7-dione], the IC50 was 0.0869 µM.

For the origin of these results see US20240279221A1, “HETEROCYCLIC COMPOUNDS AND METHODS OF USE” (Schrödinger, Inc., priority 2021, published 2024).
